Experimental data as given in patent US20260158177A1, “COMPOUNDS SPECIFIC TO GRANZYME B AND USES THEREOF” (CYTOSITE BIOPHARMA INC., priority 2021, published 2026).
Numbered stars: 1 amine (or outer) side, 2 acyl side, 3 side chain; on linkers, the order of the positions; unused ones are H or OH. Square brackets hold non-standard residues; d marks the D form. Peptide text beside a SMILES is read from it. * marks the point of attachment. X2 = O=C1CN2CCN(CCN(CC3CCN(CC(=O)*)CC3)CC2)CC(=O)[O][Al]([F])[O]1; NOTA(AlF) = O=C1CN2CCN(CCN(CC(=O)*)CC2)CC(=O)[O][Al]([F])[O]1; Haic = O=C1[C@@H](N[*:1])CCc2cccc3c2N1[C@H](C(=O)[*:2])C3; NH(5-HO-2-oxo-oxolan-4-yl) = O=C1CC(N*)C(O)O1; X1 = O=C(CN1CCN([*:1])CC1)[*:2]

Assays:
[1] = Radioactive metabolite screening in male CD-1 mouse urine by radiometric HPLC; format: in vivo, male CD-1 mice; conditions: for 60 minutes (% parent in urine): male CD-1 mouse urine, 60 minutes post tail vein injection, n=3; for radiometabolites in urine: mice, urine at 60 min post dose
Description: Radioactive metabolite screening studies were performed by injection of [18F] granzyme B tracers in male CD-1 mice followed by analysis of urine samples at 60 minutes by radiometric HPLC.
Briefly, male CD-1 mice were anesthetized prior to dosing with approximately 250 μCi [^18F] granzyme B tracer via tail vein injection (n=3 mice). Urine samples were collected at the 60 minutes post-injection following anesthesia and cervical dislocation. Samples were diluted 100-fold in water prior to injection by HPLC.
Diluted samples were then analyzed on an Agilent 1290 series UPLC UV coupled with a BGO coincidence detector. The HPLC method utilized either 1) Phenomenex Kinetex EVO C18 (150×2.1 mm, 1.7 micron); 100 μL injection volume; flow-rate: 0.5 mL/min; solvent for A: 0.1% formic acid in water; solvent for B: 100% acetonitrile; gradient: initial hold at 5% B hold for 1 min, 5% to 40% in 7 min, hold 40% B for 2 min, increase from 40% to 95% B in 1 min, hold 95% B for 2 min, and then return to 5% B to reequilibrate, or 2) Phenomenex Monolithic C18 (100×4.6 mm); 100 μL injection volume; flow-rate: 1.2 mL/min; solvent for A: 20 mM ammonium acetate in water; solvent for B: 100% methanol; gradient: same as above.

[2] = target: T1, granzyme B (Human lymphocytes) (Homo sapiens, UniProt P10144); assay: In vivo PET/CT imaging of ^18F-granzyme B tracers in a Matrigel mouse model of active and pro-form granzyme B; conditions: female nude athymic mice with granzyme B/Matrigel implants, iv ^18F-radiotracer, PET 75-minutes post-injection
T1 construct: Matrigel Mouse Model of Active and Pro-Form Granzyme B; purchased Enzo Life Sciences; host or cells: human lymphocytes
Description: Female nude athymic (5-6 weeks, 15-30 g) mice were purchased from Jackson Laboratories. Both granzyme B (Human lymphocytes, Enzo Life Sciences) and inactivated human pro-form granzyme B (R&D Systems) were also commercially purchased. […] Each granzyme B enzyme was then brought up to a final concentration of 0.05 μg/ul using phosphate buffered saline (GE, Hyclone). Matrigel (65 μl, Corning) was mixed with 15 μl of 0.75 μg of each granzyme B enzyme (granzyme B and pro-form granzyme B) within each Eppendorf tube. The mice were then anesthetized with 2.5-3% isoflurane mixed with oxygen. Approximately 60-80 μl of granzyme B/Matrigel or the pro-form granzyme B/Matrigel were then injected using a 28-gauge X 0.5-inch insulin syringe (Terumo) to form implants on the right and left shoulder flanks of the mice. Approximately five minutes later, the mice were administered the ^18F-radiotracer via a bolus intravenous injection (approximately 150 μCi in a total volume of 100 ul saline plus an additional ˜25 ul saline to flush the catheter line). After the radiotracer injection, the catheter was removed and measured for any remaining residual radioactivity. The mice were then placed back in their cage for recovery. A nanoScan® PET/CT (Mediso, Hungary) was used for micro-PET/CT imaging in which 15-minute static PET scans were conducted 75-minutes post-injection of the radiotracer. Tera-Tomo™ 3D PET iterative reconstruction along with scatter correction were then conducted post-acquisition. A short high-resolution computed tomography (CT) scan was also performed immediately after to allow for anatomical registration. PET signal in the granzyme B implants were quantified by manually drawing regions of interest (ROIs) over the Matrigel implants based on the fused PET/CT images and the corresponding activity values were determined with VivoQuant (Invicro, Massachusetts). All values were represented as % injected dose per gram (% ID/g). Target to background ratios (TBR's) were then calculated by dividing the granzyme B % ID/g value by the pro-form granzyme B % ID/g value. PET imaging timepoints and granzyme B concentrations used in these experiments were determined in previous studies (data not shown).

T1 sequence (P10144 21-247): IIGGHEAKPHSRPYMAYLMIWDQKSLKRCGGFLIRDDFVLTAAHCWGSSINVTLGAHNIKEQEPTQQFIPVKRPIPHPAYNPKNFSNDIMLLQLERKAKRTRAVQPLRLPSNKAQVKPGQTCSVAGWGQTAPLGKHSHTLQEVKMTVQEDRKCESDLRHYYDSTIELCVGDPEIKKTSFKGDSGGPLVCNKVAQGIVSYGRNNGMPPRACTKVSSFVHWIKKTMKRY

## CC[C@H](C)[C@H](NC(=O)CCNC(=O)CCNC(=O)CN(CC(=O)O)C(=O)CN1CCC(CN2CCN3CCN(CC2)CC(=O)[O][Al]([F])[O]C(=O)C3)CC1)C(=O)N[C@H]1CCc2cccc3c2N(C1=O)[C@H](C(=O)NC1CC(=O)OC1O)C3 (stereo partly shown) [18F-5-Al]
[1]
  60 minutes (% parent in urine): 100%

## CC[C@H](C)[C@H](NC(=O)CCNC(=O)CN(CC(=O)O)C(=O)CCNC(=O)CN1CCC(CN2CCN3CCN(CC2)CC(=O)[O][Al]([F])[O]C(=O)C3)CC1)C(=O)N[C@H]1CCc2cccc3c2N(C1=O)[C@H](C(=O)NC1CC(=O)OC1O)C3 (stereo partly shown) [Compound ^18F-3-Al]
[1]
  60 minutes (% parent in urine): 100%
  radiometabolites in urine: no radiometabolites were observed
[2]
  in vivo imaging activity: good imaging activity

## CC[C@H](C)[C@H](NC(=O)COCCNC(=O)[C@@H](CCC(=O)O)NC(=O)[C@@H](CCC(=O)O)NC(=O)CN1CCC(CN2CCN3CCN(CC2)CC(=O)[O][Al]([F])[O]C(=O)C3)CC1)C(=O)N[C@H]1CCc2cccc3c2N(C1=O)[C@H](C(=O)NC1CC(=O)OC1O)C3 (stereo partly shown) [Compound ^18F-4-Al]
[1]
  60 minutes (% parent in urine): 100%
  radiometabolites in urine: no radiometabolites were observed
[2]
  in vivo imaging activity: good imaging activity

## CC[C@H](C)[C@H](NC(=O)CCNC(=O)CCNC(=O)CN(CC(=O)O)C(=O)CN1CCN(C(=O)CN2CCN3CCN(CC2)CC(=O)[O][Al]([F])[O]C(=O)C3)CC1)C(=O)N[C@H]1CCc2cccc3c2N(C1=O)[C@H](C(=O)NC1CC(=O)OC1O)C3 (stereo partly shown) [Compound ^18F-13-Al]
[2]
  in vivo imaging activity: good imaging activity

## CC[C@H](C)[C@H](NC(=O)CCNC(=O)CC[C@H](NC(=O)CN1CCC(CN2CCN3CCN(CC2)CC(=O)[O][Al]([F])[O]C(=O)C3)CC1)C(=O)O)C(=O)N[C@H]1CCc2cccc3c2N(C1=O)[C@H](C(=O)NC1CC(=O)OC1O)C3 (stereo partly shown) [18F-6-Al]
[1]
  60 minutes (% parent in urine): 66.3%

## CC[C@H](C)[C@H](NC(=O)CCNC(=O)CCNC(=O)[C@@H](CCC(=O)O)NC(=O)CN1CCC(CN2CCN3CCN(CC2)CC(=O)[O][Al]([F])[O]C(=O)C3)CC1)C(=O)N[C@H]1CCc2cccc3c2N(C1=O)[C@H](C(=O)NC1CC(=O)OC1O)C3 (stereo partly shown) [Compound ^18F-1-Al]
[1]
  60 minutes (% parent in urine): 100%
  radiometabolites in urine: no radiometabolites were observed
[2]
  in vivo imaging activity: good imaging activity

## CC[C@H](C)[C@H](NC(=O)CNC(=O)CNC(=O)[C@H](CCC(=O)O)NC(=O)CN1CCC(CN2CCN3CCN(CC2)CC(=O)[O][Al]([F])[O]C(=O)C3)CC1)C(=O)N[C@H]1CCc2cccc3c2N(C1=O)[C@H](C(=O)NC1CC(=O)OC1O)C3 (stereo partly shown) [18F-2-Al] (X2-EGGI[Haic]-{NH(5-HO-2-oxo-oxolan-4-yl)})
[2]
  in vivo imaging activity: good imaging activity

## CC[C@H](C)[C@H](NC(=O)CCNC(=O)CCNC(=O)[C@@H](CCC(=O)O)NC(=O)CN1CCN(C(=O)CN2CCN3CCN(CC2)CC(=O)[O][Al]([F])[O]C(=O)C3)CC1)C(=O)N[C@H]1CCc2cccc3c2N(C1=O)[C@H](C(=O)NC1CC(=O)OC1O)C3 (stereo partly shown) [Compound ^18F-12-Al]
[2]
  in vivo imaging activity: good imaging activity

## CC[C@H](C)[C@H](NC(=O)CNC(=O)CNC(=O)[C@H](CCC(=O)O)NC(=O)CN1CCN(C(=O)CN2CCN3CCN(CC2)CC(=O)[O][Al]([F])[O]C(=O)C3)CC1)C(=O)N[C@H]1CCc2cccc3c2N(C1=O)[C@H](C(=O)NC1CC(=O)OC1O)C3 (stereo partly shown) [18F-8-Al] ({NOTA(AlF)}-[X1]EGGI[Haic]-{NH(5-HO-2-oxo-oxolan-4-yl)})
[2]
  in vivo imaging activity: good imaging activity

## CC[C@H](C)[C@H](NC(=O)COCCNC(=O)[C@@H](CCC(=O)O)NC(=O)[C@@H](CCC(=O)O)NC(=O)CN1CCN(C(=O)CN2CCN3CCN(CC2)CC(=O)[O][Al]([F])[O]C(=O)C3)CC1)C(=O)N[C@H]1CCc2cccc3c2N(C1=O)[C@H](C(=O)NC1CC(=O)OC1O)C3 (stereo partly shown) [Compound ^18F-10-Al]
[2]
  in vivo imaging activity: good imaging activity
